Source: ChEMBL document CHEMBL5523725, “Fragment-Based Anti-inflammatory Agent Design and Target Identification: Discovery of AF-45 as an IRAK4 Inhibitor to Treat Ulcerative Colitis and Acute Lung Injury” (J Med Chem, 2024)
Active and inactive are the calls of the source. The calls are words filed in the database; no cut-off is given here.

Key:
[1] = Cytotoxicity against mouse RAW264.7 cells assessed as cell viability by MTT assay; format: toxicity, cell-based; parameters: concentration or dose not given beside the values; conditions: read-out: Activity
RAW264.7 = test: Antiinflammatory activity in LPS-induced mouse RAW264.7 cells assessed as inhibition of IL-6 release at 10 uM pretreated for 30 mins followed by LPS stimulation and measured after 24 hrs by ELISA relative to control; format: functional; conditions: time 24.5 hrs
Mus musculus [2] = test: Antiinflammatory activity in LPS induced C57BL/6 mouse model of acute lung injury assessed as reduction in spleen over activation at 20 mg/kg, ip preadministered for 30 mins followed by LPS administration and measured after 6 hrs by H and E staining based analysis; format: functional, organism-based; conditions: time 6.5 hrs
Mus musculus [3] = test: Antiinflammatory activity in LPS induced C57BL/6 mouse model of acute lung injury assessed as reduction in macrophage infiltration in lung at 20 mg/kg, ip preadministered for 30 mins followed by LPS administration and measured after 6 hrs by F4/80 labeling based immunohistochemical analysis; format: functional, organism-based; conditions: time 6.5 hrs
Mus musculus [4] = test: Antiinflammatory activity in LPS induced C57BL/6 mouse model of acute lung injury assessed as inhibition of IL-6 release in BALF at 20 mg/kg, ip preadministered for 30 mins followed by LPS administration and measured after 6 hrs by ELISA; format: functional, organism-based; conditions: time 6.5 hrs
Mus musculus [5] = test: Antiinflammatory activity in LPS induced C57BL/6 mouse model of acute lung injury assessed as inhibition of TNFalpha release in BALF at 20 mg/kg, ip preadministered for 30 mins followed by LPS administration and measured after 6 hrs by ELISA; format: functional, organism-based; conditions: time 6.5 hrs
Mus musculus [6] = test: Antiinflammatory activity in LPS induced C57BL/6 mouse model of acute lung injury assessed as reduction in number of macrophages in spleen at 20 mg/kg, ip preadministered for 30 mins followed by LPS administration and measured after 6 hrs by F4/80 labeling based immunohistochemical analysis; format: functional, organism-based; conditions: time 6.5 hrs
Mus musculus [7] = test: Antiinflammatory activity in LPS induced C57BL/6 mouse model of acute lung injury assessed as reduction in white pulp fusion at 20 mg/kg, ip preadministered for 30 mins followed by LPS administration and measured after 6 hrs by H and E staining based analysis; format: functional, organism-based; conditions: time 6.5 hrs
Mus musculus [8] = test: Antiinflammatory activity in LPS induced C57BL/6 mouse model of acute lung injury assessed as inhibition of TNFalpha release in serum at 20 mg/kg, ip preadministered for 30 mins followed by LPS administration and measured after 6 hrs by ELISA; format: functional, organism-based; conditions: time 6.5 hrs
Mus musculus [9] = test: Antiinflammatory activity in LPS induced C57BL/6 mouse model of acute lung injury assessed as reduction in over activation of spleen at 20 mg/kg, ip preadministered for 30 mins followed by LPS administration and measured after 6 hrs by F4/80 labeling based immunohistochemical analysis; format: functional, organism-based; conditions: time 6.5 hrs
Mus musculus [10] = test: Antiinflammatory activity in LPS induced C57BL/6 mouse model of acute lung injury assessed as inhibition of IL-6 release in serum at 20 mg/kg, ip preadministered for 30 mins followed by LPS administration and measured after 6 hrs by ELISA; format: functional, organism-based; conditions: time 6.5 hrs
Mus musculus [11] = test: Antiinflammatory activity in male C57BL/6 mouse model of DSS-induced ulcerative colitis assessed as reduction in macrophage infiltration in spleen at 100 mg/kg, po administered for 11 days with subsequent administration of DSS for 8 days by F4/80 labeling based immunohistochemistry analysis; format: functional, organism-based; conditions: time 11.0 day
Mus musculus [12] = test: Antiinflammatory activity in male C57BL/6 mouse model of DSS-induced ulcerative colitis assessed as reduction in macrophage infiltration in colon at 100 mg/kg, po administered for 11 days with subsequent administration of DSS for 8 days by F4/80 labeling based immunohistochemistry analysis; format: functional, organism-based; conditions: time 11.0 day
Mus musculus [13] = test: Antiinflammatory activity in male C57BL/6 mouse model of DSS-induced ulcerative colitis assessed as reduction in colonic structure destruction at 100 mg/kg, po administered for 11 days with subsequent administration of DSS for 8 days by H and E staining based analysis; format: functional, organism-based; conditions: time 11.0 day
Mus musculus [14] = test: Anti-colitis activity in male C57BL/6 mouse model of DSS-induced ulcerative colitis assessed as colon length at 100 mg/kg, po administered for 11 days with subsequent administration of DSS for 8 days (reference value: 5.2 cm); format: functional; conditions: time 11 day
Mus musculus [15] = test: Antiinflammatory activity in male C57BL/6 mouse model of DSS-induced ulcerative colitis assessed as reduction in spleen to body weight ratio at 100 mg/kg, po administered for 11 days with subsequent administration of DSS for 8 days; format: functional, organism-based; conditions: time 11.0 day
Mus musculus [16] = test: Antiinflammatory activity in male C57BL/6 mouse model of DSS-induced ulcerative colitis assessed as restoration of protein status at 100 mg/kg, po administered for 11 days with subsequent administration of DSS for 8 days by H and E staining based analysis; format: functional, organism-based; conditions: time 11.0 day
Mus musculus [17] = test: Antiinflammatory activity in male C57BL/6 mouse model of DSS-induced ulcerative colitis assessed as preservation of goblet cells at 100 mg/kg, po administered for 11 days with subsequent administration of DSS for 8 days by H and E staining based analysis; format: functional, organism-based; conditions: time 11.0 day
[18] = molecular target: T1, Lymphocyte antigen 96 (Mus musculus) (UniProt Q9JHF9); test: Thermal stabilization of MD2 in mouse RAW264.7 cells assessed as reduction in decomposition at 10 uM at 45 to 51 degreeC measured after 4 hrs by CETSA; format: cell-based
T1 sequence (whole entry): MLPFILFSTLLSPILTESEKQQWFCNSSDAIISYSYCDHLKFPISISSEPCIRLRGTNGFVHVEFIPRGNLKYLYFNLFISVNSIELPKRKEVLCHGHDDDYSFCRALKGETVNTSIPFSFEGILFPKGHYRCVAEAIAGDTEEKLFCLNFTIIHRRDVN

Row | SMILES | viability [1] | inhibition at 10 µM (RAW264.7) | also measured
1 | N[C@H]1C[C@@H](OC(=O)c2nn(-c3ccccc3)ccc2=O)C1 | 89% | 33.2% | –
2 | COc1cc2ncnc(Oc3cccc(NC(=O)N[C@H]4CC[C@@H](N)CC4)c3)c2cc1OC | 91.5% | 77.3% | –
3 | COc1cc2ncnc(Oc3cccc(NC(=O)N[C@H]4CC[C@@H](NC(=O)c5ccc(F)cc5)CC4)c3)c2cc1OC | 123% | 52.2% | –
4 | COc1cc2ncnc(Oc3cccc(NC(=O)O[C@H]4C[C@@H](N)C4)c3)c2cc1OC | 106% | 46.9% | –
5 | COc1cc2ncnc(Oc3cccc(NC(=O)O[C@H]4CC[C@@H](N)CC4)c3)c2cc1OC | 96.5% | 73.4% | –
6 | COc1cc2ncnc(N[C@H]3CC[C@@H](N)CC3)c2cc1OC | 91.1% | 83.7% | –
7 | COc1cc2ncnc(Oc3cccc(NC(=O)N[C@H]4CC[C@@H](NC(=O)c5cccc(F)c5)CC4)c3)c2cc1OC | 121% | 45.4% | –
8 | COc1cc2ncnc(O[C@H]3CC[C@@H](N)CC3)c2cc1OC | 88.9% | 75.8% | –
9 | COc1cc2ncnc(N[C@H]3CC[C@@H](NCCO)CC3)c2cc1OC | 99.7% | 10.6% | –
10 | C[C@@H]1C[C@H]2[C@@H]3CCC4=CC(=O)C=C[C@]4(C)[C@@]3(F)[C@@H](O)C[C@]2(C)[C@@]1(O)C(=O)CO | – | – | Activity (Mus musculus [2]): Active; Activity (Mus musculus [3]): Active; Activity (Mus musculus [4]): Active; Activity (Mus musculus [5]): Active; Activity (Mus musculus [6]): inactive; Activity (Mus musculus [7]): Active; Activity (Mus musculus [8]): Active; Activity (Mus musculus [9]): inactive; Activity (Mus musculus [10]): Active
11 | N[C@H]1CC[C@@H](Oc2ncnc3cc(Cl)ccc23)CC1 | 98.8% | 53.1% | –
12 | COc1cc2ncnc(Oc3cccc(NC(=O)N[C@H]4CC[C@@H](NC(=O)CCC5CCCC5)CC4)c3)c2cc1OC | 117% | 52.9% | –
13 | COc1cc2ncnc(Oc3cccc(NC(=O)N[C@H]4CC[C@@H](NC(=O)c5ccc(F)cc5Cl)CC4)c3)c2cc1OC | 130% | 9.4% | –
14 | COc1cc2ncnc(N[C@H]3CC[C@H](N)CC3)c2cc1OC | 108% | 64.6% | –
15 | N[C@H]1CC[C@@H](OC(=O)c2nn(-c3ccccc3)ccc2=O)CC1 | 107% | – | inhibition (RAW264.7): inactive
16 | Nc1ccc(O)c(C(=O)O)c1 [MESALAMINE] | – | – | Activity (Mus musculus [11]): Active; Activity (Mus musculus [12]): Active; Activity (Mus musculus [13]): Active; Activity (Mus musculus [14]): 6 cm; Activity (Mus musculus [15]): Active; Activity (Mus musculus [16]): Active; Activity (Mus musculus [17]): Active
17 | COc1cc2ncnc(N[C@H]3CC[C@@H](NC(=O)c4ccc(F)cc4)CC3)c2cc1OC | 102% | 39.9% | –
18 | COc1cc2ncnc(O[C@H]3CC[C@H](N)CC3)c2cc1OC | 93.7% | 57.4% | –

Row | SMILES | viability [1] | inhibition at 10 µM (RAW264.7) | also measured
19 | COc1cc2ncnc(Oc3cccc(NC(=O)N[C@H]4CC[C@@H](NC(=O)OC(C)(C)C)CC4)c3)c2cc1OC | 92.1% | 2.1% | –
20 | CCN1CCN(CCOc2ncnc3cc(OC)c(OC)cc23)CC1 | 90.1% | 40% | –
21 | COc1cc2ncnc(Oc3cccc(NC(=O)N[C@H]4CC[C@@H](NC(=O)c5ccc(C)cc5)CC4)c3)c2cc1OC | 124% | 72.7% | –
22 | COc1ccc(C(=O)/C=C/c2cccc(OC)c2OC)cc1 | – | – | Activity [18]: Active
23 | Cn1c(CNC(=O)O[C@H]2CC[C@@H](N)CC2)nc2ccccc21 | 90.1% | 52.8% | –
24 | COc1cc2ncnc(Oc3cccc(NC(=O)N[C@H]4CC[C@@H](NC(=O)c5ccccn5)CC4)c3)c2cc1OC | 116% | 45.4% | –
25 | COc1cc2nc(Cl)nc(O[C@H]3CC[C@@H](N)CC3)c2cc1OC | 105% | 34.3% | –
26 | COc1cc2ncnc(NCCc3cccs3)c2cc1OC | 88.1% | 16.1% | –
27 | COc1cc2ncnc(N[C@H]3CC[C@@H](NS(=O)(=O)c4ccc(C)cc4)CC3)c2cc1OC | 104% | 45.4% | –
28 | N[C@H]1CC[C@@H](Oc2ncnc3ccccc23)CC1 | 103% | 76.8% | –
29 | Cn1c(CNC(=O)O[C@H]2C[C@@H](N)C2)nc2ccccc21 | 97.1% | 44.7% | –
30 | COc1cc2ncnc(Oc3cccc(NC(=O)N[C@H]4CC[C@@H](NS(=O)(=O)c5ccccc5)CC4)c3)c2cc1OC | 112% | 16% | –
31 | CN[C@H]1CC[C@@H](Nc2ncnc3cc(OC)c(OC)cc23)CC1 | 98.2% | – | inhibition (RAW264.7): inactive
32 | COc1cc2c(N[C@H]3CC[C@@H](N)CC3)ncnc2cc1OCc1ccccc1 | 86.7% | 88.6% | –
33 | COc1cc2ncnc(N[C@H]3CC[C@@H](NCCCN(C)C)CC3)c2cc1OC | 96.5% | 11.1% | –
34 | COCCOc1cc2ncnc(O[C@H]3CC[C@@H](N)CC3)c2cc1OCCOC | 98.6% | 52.7% | –
35 | COc1cc2ncnc(N[C@H]3CC[C@@H](NC(=O)c4ccc(C)cc4)CC3)c2cc1OC | 97.8% | 42.3% | –
